# Data: ChEMBL document CHEMBL3046287, “Azoxystrobin resistance of French Mycosphaerella graminicola strains assessed by four in vitro bioassays and by screening of G143A substitution” (Crop Prot, 2010)
# Experiments:
# Format in all cases: functional, organism-based
# Zymoseptoria tritici [1] = test: Antifungal activity against azoxystrobin-sensitive Zymoseptoria tritici IPO323 carrying cytochrome-b G143 allele assessed as fungal growth inhibition after 6 days at 20 degC by microplate without alamar blue assay; conditions: IPO323, 144 h
# Zymoseptoria tritici [2] = test: Antifungal activity against azoxystrobin-resistant Zymoseptoria tritici T0345 carrying cytochrome-b A143 allele assessed as inhibition of spore germination after 2 days at 18 degC by spotting on PDA medium assay; conditions: T0345, 48 h
# Zymoseptoria tritici [3] = test: Antifungal activity against azoxystrobin-sensitive Zymoseptoria tritici T021 carrying cytochrome-b G143 allele assessed as fungal growth inhibition after 6 days at 20 degC by microplate without alamar blue assay; conditions: T021, 144 h
# Zymoseptoria tritici [4] = test: Antifungal activity against azoxystrobin-resistant Zymoseptoria tritici T0451 carrying cytochrome-b A143 allele assessed as fungal colony perpendicular diameter changes after 10 days at 18 degC by spotting on PDA medium assay; conditions: T0451, 240 h
# Zymoseptoria tritici [5] = test: Antifungal activity against azoxystrobin-resistant Zymoseptoria tritici T0290 carrying cytochrome-b A143 allele assessed as fungal colony perpendicular diameter changes after 10 days at 18 degC by spotting on PDA medium assay; conditions: T0290, 240 h
# Zymoseptoria tritici [6] = test: Antifungal activity against azoxystrobin-resistant Zymoseptoria tritici T032 carrying cytochrome-b A143 allele assessed as fungal colony perpendicular diameter changes after 10 days at 18 degC by spotting on PDA medium assay; conditions: T032, 240 h
# Zymoseptoria tritici [7] = test: Antifungal activity against azoxystrobin-sensitive Zymoseptoria tritici T0148 carrying cytochrome-b G143 allele assessed as inhibition of spore germination after 2 days at 18 degC by spotting on PDA medium assay; conditions: T0148, 48 h
# Zymoseptoria tritici [8] = test: Antifungal activity against azoxystrobin-sensitive Zymoseptoria tritici T0468 carrying cytochrome-b G143 allele assessed as fungal colony perpendicular diameter changes after 10 days at 18 degC by spotting on PDA medium assay; conditions: T0468, 240 h
# Zymoseptoria tritici [9] = test: Antifungal activity against azoxystrobin-resistant Zymoseptoria tritici T0251 carrying cytochrome-b A143 allele assessed as fungal colony perpendicular diameter changes after 10 days at 18 degC by spotting on PDA medium assay; conditions: T0251, 240 h
# Zymoseptoria tritici [10] = test: Antifungal activity against azoxystrobin-sensitive Zymoseptoria tritici T0464 carrying cytochrome-b G143 allele assessed as fungal colony perpendicular diameter changes after 10 days at 18 degC by spotting on PDA medium assay; conditions: T0464, 240 h
# Zymoseptoria tritici [11] = test: Antifungal activity against azoxystrobin-sensitive Zymoseptoria tritici T0466 carrying cytochrome-b G143 allele assessed as fungal growth inhibition after 6 days at 20 degC by microplate without alamar blue assay; conditions: T0466, 144 h
# Zymoseptoria tritici [12] = test: Antifungal activity against azoxystrobin-resistant Zymoseptoria tritici T0293 carrying cytochrome-b A143 allele assessed as inhibition of spore germination after 2 days at 18 degC by spotting on PDA medium assay; conditions: T0293, 48 h
# Zymoseptoria tritici [13] = test: Antifungal activity against azoxystrobin-sensitive Zymoseptoria tritici T021 carrying cytochrome-b G143 allele assessed as inhibition of spore germination after 2 days at 18 degC by spotting on PDA medium assay; conditions: T021, 48 h
# Zymoseptoria tritici [14] = test: Antifungal activity against azoxystrobin-resistant Zymoseptoria tritici T0485 carrying cytochrome-b A143 allele assessed as fungal colony perpendicular diameter changes after 10 days at 18 degC by spotting on PDA medium assay; conditions: T0485, 240 h
# Zymoseptoria tritici [15] = test: Antifungal activity against azoxystrobin-sensitive Zymoseptoria tritici T0468 carrying cytochrome-b G143 allele assessed as fungal growth inhibition after 6 days at 20 degC by microplate without alamar blue assay; conditions: T0468, 144 h
# Zymoseptoria tritici [16] = test: Antifungal activity against azoxystrobin-sensitive Zymoseptoria tritici T021 carrying cytochrome-b G143 allele assessed as fungal colony perpendicular diameter changes after 10 days at 18 degC by spotting on PDA medium assay; conditions: T021, 240 h
# Zymoseptoria tritici [17] = test: Antifungal activity against azoxystrobin-sensitive Zymoseptoria tritici T0460 carrying cytochrome-b G143 allele assessed as inhibition of spore germination after 2 days at 18 degC by spotting on PDA medium assay; conditions: T0460, 48 h
# Zymoseptoria tritici [18] = test: Antifungal activity against azoxystrobin-resistant Zymoseptoria tritici T055 carrying cytochrome-b A143 allele assessed as fungal growth inhibition after 6 days at 20 degC by microplate without alamar blue assay; conditions: T055, 144 h
# Zymoseptoria tritici [19] = test: Antifungal activity against azoxystrobin-sensitive Zymoseptoria tritici T0278 carrying cytochrome-b G143 allele assessed as fungal colony perpendicular diameter changes after 10 days at 18 degC by spotting on PDA medium assay; conditions: T0278, 240 h
# Zymoseptoria tritici [20] = test: Antifungal activity against azoxystrobin-sensitive Zymoseptoria tritici T083 carrying cytochrome-b G143 allele assessed as inhibition of spore germination after 2 days at 18 degC by spotting on PDA medium assay; conditions: T083, 48 h
# Zymoseptoria tritici [21] = test: Antifungal activity against azoxystrobin-resistant Zymoseptoria tritici T0345 carrying cytochrome-b A143 allele assessed as fungal colony perpendicular diameter changes after 10 days at 18 degC by spotting on PDA medium assay; conditions: T0345, 240 h
# Zymoseptoria tritici [22] = test: Antifungal activity against azoxystrobin-sensitive Zymoseptoria tritici T0403 carrying cytochrome-b G143 allele assessed as fungal colony perpendicular diameter changes after 10 days at 18 degC by spotting on PDA medium assay; conditions: T0403, 240 h
# Zymoseptoria tritici [23] = test: Antifungal activity against azoxystrobin-sensitive Zymoseptoria tritici T0211 carrying cytochrome-b G143 allele assessed as inhibition of spore germination after 2 days at 18 degC by spotting on PDA medium assay; conditions: T0211, 48 h
# Zymoseptoria tritici [24] = test: Antifungal activity against azoxystrobin-sensitive Zymoseptoria tritici T0466 carrying cytochrome-b G143 allele assessed as inhibition of spore germination after 2 days at 18 degC by spotting on PDA medium assay; conditions: T0466, 48 h
# Zymoseptoria tritici [25] = test: Antifungal activity against azoxystrobin-sensitive Zymoseptoria tritici T0365 carrying cytochrome-b G143 allele assessed as fungal colony perpendicular diameter changes after 10 days at 18 degC by spotting on PDA medium assay; conditions: T0365, 240 h
# Zymoseptoria tritici [26] = test: Antifungal activity against azoxystrobin-sensitive Zymoseptoria tritici T0214 carrying cytochrome-b G143 allele assessed as inhibition of spore germination after 2 days at 18 degC by spotting on PDA medium assay; conditions: T0214, 48 h
# Zymoseptoria tritici [27] = test: Antifungal activity against azoxystrobin-sensitive Zymoseptoria tritici T0209 carrying cytochrome-b G143 allele assessed as fungal colony perpendicular diameter changes after 10 days at 18 degC by spotting on PDA medium assay; conditions: T0209, 240 h
# Zymoseptoria tritici [28] = test: Antifungal activity against azoxystrobin-resistant Zymoseptoria tritici T0262 carrying cytochrome-b A143 allele assessed as fungal growth inhibition after 6 days at 20 degC by microplate without alamar blue assay; conditions: T0262, 144 h
# Zymoseptoria tritici [29] = test: Antifungal activity against azoxystrobin-sensitive Zymoseptoria tritici T0211 carrying cytochrome-b G143 allele assessed as fungal growth inhibition after 6 days at 20 degC by microplate without alamar blue assay; conditions: T0211, 144 h
# Zymoseptoria tritici [30] = test: Antifungal activity against azoxystrobin-sensitive Zymoseptoria tritici T0211 carrying cytochrome-b G143 allele assessed as fungal colony perpendicular diameter changes after 10 days at 18 degC by spotting on PDA medium assay; conditions: T0211, 240 h
smiles,measurement,setting,value
CO/C=C(/C(=O)OC)c1ccccc1Oc1cc(Oc2ccccc2C#N)ncn1 [AZOXYSTROBIN],IC50,Zymoseptoria tritici [1],0.01 µg/mL
same,IC50,Zymoseptoria tritici [2],12.6 µg/mL
same,IC50,Zymoseptoria tritici [3],0.22 µg/mL
same,IC50,Zymoseptoria tritici [4],14.7 µg/mL
same,IC50,Zymoseptoria tritici [5],11.2 µg/mL
same,IC50,Zymoseptoria tritici [6],37.8 µg/mL
same,IC50,Zymoseptoria tritici [7],0.08 µg/mL
same,IC50,Zymoseptoria tritici [8],0.23 µg/mL
same,IC50,Zymoseptoria tritici [9],15.3 µg/mL
same,IC50,Zymoseptoria tritici [10],0.25 µg/mL
same,IC50,Zymoseptoria tritici [11],< 0.01 µg/mL
same,IC50,Zymoseptoria tritici [12],11.4 µg/mL
same,IC50,Zymoseptoria tritici [13],0.21 µg/mL
same,IC50,Zymoseptoria tritici [14],10.6 µg/mL
same,IC50,Zymoseptoria tritici [15],0.02 µg/mL
same,IC50,Zymoseptoria tritici [16],0.11 µg/mL
same,IC50,Zymoseptoria tritici [17],0.13 µg/mL
same,IC50,Zymoseptoria tritici [18],> 100 µg/mL
same,IC50,Zymoseptoria tritici [19],0.17 µg/mL
same,IC50,Zymoseptoria tritici [20],0.08 µg/mL
same,IC50,Zymoseptoria tritici [21],> 100 µg/mL
same,IC50,Zymoseptoria tritici [22],0.12 µg/mL
same,IC50,Zymoseptoria tritici [23],0.08 µg/mL
same,IC50,Zymoseptoria tritici [24],0.94 µg/mL
same,IC50,Zymoseptoria tritici [25],0.11 µg/mL
same,IC50,Zymoseptoria tritici [26],0.03 µg/mL
same,IC50,Zymoseptoria tritici [27],0.14 µg/mL
same,IC50,Zymoseptoria tritici [28],11.7 µg/mL
same,IC50,Zymoseptoria tritici [29],0.02 µg/mL
same,IC50,Zymoseptoria tritici [30],0.08 µg/mL
